Reference: publication PMC5548701, “Selective targeting of melanoma using N-(2-diethylaminoethyl) 4-[^18F]fluoroethoxy benzamide (4-[^18F]FEBZA): a novel PET imaging probe” (EJNMMI Research, 2017)
Read-outs that look alike come from different tables or passages of the source.

Experiments:
[1] = system: HT-29 human colorectal adenocarcinoma tumor xenografts; assay: biodistribution in mice bearing HT-29 tumor xenografts; type: in vivo, athymic nu/nu mice; details: for tumor-to-brain tissue ratio: HT-29 group; for Adrenals %IA/g tissue (mean ± SD) / Blood %IA/g tissue (mean ± SD) / Bone %IA/g tissue (mean ± SD) / Brain %IA/g tissue (mean ± SD) / Heart %IA/g tissue (mean ± SD) / Kidneys %IA/g tissue (mean ± SD) / Liver %IA/g tissue (mean ± SD) / Lung %IA/g tissue (mean ± SD) / Muscles %IA/g tissue (mean ± SD) / Pancreas %IA/g tissue (mean ± SD) / Sm. Intestine %IA/g tissue (mean ± SD) / Spleen %IA/g tissue (mean ± SD): HT-29 tumor mice; for Tumor %IA/g tissue (mean ± SD): HT-29 tumor
Method: B16F1 melanoma cells, HT-29 human colorectal adenocarcinoma cells, and C-32 amelanotic melanoma cells were purchased from the American Type Culture Collection (ATCC, Rockville, MD). B16F1 murine melanotic melanoma cells were maintained in Dulbecco’s modified Eagles medium supplemented with 10% fetal calf-serum, 2 mM L-glutamine, and 1 mM pyruvate. HT-29 and C-32 cells were maintained in RPMI supplemented with 10% fetal calf serum and 2 mM L-glutamine. C57BL/6 and athymic nu/nu mice were purchased from Charles River Laboratories (Charles River Laboratories, Boston, MA). All animal studies were performed using an IACUC-approved protocol, and the work was performed under the guidelines established by Wake Forest University. The cells were grown to confluency, harvested, washed with phosphate-buffered saline and then were suspended in a 1:1 mixture of phosphate-buffered saline and Matrigel (BD Life Sciences, San Jose, CA) at a concentration of 5 × 10^6 cells/mL. For subcutaneous tumor xenografts, […] in the right flank with 100 μL of a suspension of B16F1 cells, and female athymic nu/nu mice were injected in the right flank with 100 μL of HT-29 cells or C-32 cells.
(§1) The biodistribution studies were performed in mice bearing B16F1 (1 h n = 5; 2 h n = 6), C-32 (1 h n = 3; 2 h n = 3), and HT-29 (1 h n = 3; 2 h n = 3) tumor xenografts. The tumor-bearing mice were injected with ~40 μCi of 4-[^18F]FEBZA. A separate group of normal C57BL/6 mice with no tumor implants (1 h n = 3; 2 h n = 3) was also injected with ~40 μCi of 4-[^18F]FEBZA to study the distribution characteristics of 4-[^18F]FEBZA in the absence of tumors. At 1 h and 2 h post-injection, the mice were euthanized, and the tissues of interest were removed, rinsed with PBS, weighed, and counted for radioactivity contents using a γ-counter.

[2] = biodistribution in normal mice with no tumor implants; type: in vivo, C57BL/6 mice; details: 1 h
Method: as §1

B16F1 cells [3] = assay: homologous competitive binding assay on fixed B16F1 cells; design: species or system murine; details: homologous competition with unlabeled 4-FEBZA, 1 h
Method: After adding 0.1 nmol of 4-[^18F]FEBZA/well as the radioligand, unlabeled 4-FEBZA (2) was added to the quadruplicate sets of wells in concentrations ranging from 10^−11 to 10^−4 M and the plates were incubated for an hour at 37 °C under 5% CO2. At the end of the incubation, the media were removed, and the cells were washed with 500 μL of ice-cold media. The cells were lysed using 1 mL of phosphate-buffered saline containing 10% Triton X-100, and the lysates were collected in culture tubes to measure the radioactivity contents using a γ-counter. We performed a non-linear regression analysis of the decay-corrected CPM values to calculate the inhibition constant value (IC50), the concentration of competitor required to inhibit 50% of radiotracer binding, utilizing the GraphPad Prism software program (GraphPad Software, Inc., CA).

B16F1 melanoma cells = assay: in vitro cell binding, influence of incubation time and temperature; type: cell-based, murine; details: 2.5 × 10^5 cells/well, percent of total radioactivity added
Method: The in vitro cell binding was assessed by growing B16F1 cells in culture flasks to 80–90% confluence, trypsinizing, washing in PBS (pH 7.4), aliquoting into 12-well plates and allowing adherence to the wells overnight. Initially, we studied the influence of the incubation time and temperature on the binding to B16F1 melanoma cells. For this study, 12-well plates containing ~2.5 × 10^5 cells/well were incubated at 0, 22, and 37 °C with 4-[^18F]FEBZA in quadruplicate sets for 15, 30, 60, 120, and 180 min. After the incubation, the media were removed, and each well was washed with fresh ice-cold media (2 × 2 mL). The adherent cells were removed by lysing cells in 500 μL of PBS containing 10% Triton X-100 (Sigma-Aldrich, St. Louis, MO). The combined washes and lysate were analyzed for radioactivity content using a γ-counter.

B16F1 cells [4] = assay: internalization assay (acid wash); type: cell-based, murine; details: 37 °C
Method: Next, we evaluated the binding characteristics of 4-[^18F]FEBZA to B16F1 cells through internalization experiments. The cells were treated with a low pH buffer to sequester membrane-bound radioactivity (acid wash-releasable) from the internalized (acid wash-resistant) fraction. For this assay, 4-[^18F]FEBZA was added to 12-well plates with each well containing 4 × 10^5 B16F1cells/well (in quadruplicate), and the plates were incubated at 37 °C for 15, 30, 60, 120, and 180 min. After the incubation, the media were removed, each well was washed with ice-cold PBS (2 × 1 mL), and the washes were collected in the tubes. Subsequently, each well was gently treated with 1 mL of an ice-cold mildly acidic medium (sodium acetate buffer, pH 4.5) to remove surface-bound radioactivity, and the rinses were collected in tubes (acidic wash). The adherent cells were then lysed using 500 μL of 10% Triton X-100 in PBS, and the lysate was transferred into tubes. The total radioactivity in each of the lysate, acidic wash, and the PBS wash was measured using a γ-counter.

Structure (SMILES): CCN(CC)CCNC(=O)c1ccc(OCC[18F])cc1 [4-[^18F]FEBZA, N-(2-diethylaminoethyl) 4-[^18F]fluoroethoxybenzamide]
- tumor-to-brain tissue ratio ([1]; 1 h): 2.19 ± 0.04
- tumor-to-brain tissue ratio ([1]; 2 h): 2.04 ± 0.19
- tumor-to-muscle ratio ([1]; HT-29 mice group, 2 h): 2.21 ± 0.17
- Adrenals %IA/g tissue (mean ± SD) ([1]; 1 h post-injection): 1.07 ± 0.08 %IA/g tissue
- Blood %IA/g tissue (mean ± SD) ([1]; 1 h post-injection): 2.80 ± 0.26 %IA/g tissue
- Bone %IA/g tissue (mean ± SD) ([1]; 1 h post-injection): 3.83 ± 0.39 %IA/g tissue
- Brain %IA/g tissue (mean ± SD) ([1]; 1 h post-injection): 1.68 ± 0.18 %IA/g tissue
- Heart %IA/g tissue (mean ± SD) ([1]; 1 h post-injection): 2.52 ± 0.12 %IA/g tissue
- Kidneys %IA/g tissue (mean ± SD) ([1]; 1 h post-injection): 2.91 ± 0.24 %IA/g tissue
- Liver %IA/g tissue (mean ± SD) ([1]; 1 h post-injection): 4.84 ± 0.95 %IA/g tissue
- Lung %IA/g tissue (mean ± SD) ([1]; 1 h post-injection): 2.19 ± 0.33 %IA/g tissue
- Muscles %IA/g tissue (mean ± SD) ([1]; 1 h post-injection): 1.61 ± 0.28 %IA/g tissue
- Pancreas %IA/g tissue (mean ± SD) ([1]; 1 h post-injection): 2.41 ± 0.26 %IA/g tissue
- Sm. Intestine %IA/g tissue (mean ± SD) ([1]; 1 h post-injection): 1.98 ± 0.62 %IA/g tissue
- Spleen %IA/g tissue (mean ± SD) ([1]; 1 h post-injection): 2.11 ± 0.25 %IA/g tissue
- Adrenals %IA/g tissue (mean ± SD) ([1]; 2 h post-injection): 0.91 ± 0.19 %IA/g tissue
- Blood %IA/g tissue (mean ± SD) ([1]; 2 h post-injection): 2.29 ± 0.23 %IA/g tissue
- Bone %IA/g tissue (mean ± SD) ([1]; 2 h post-injection): 5.71 ± 1.11 %IA/g tissue
- Brain %IA/g tissue (mean ± SD) ([1]; 2 h post-injection): 1.52 ± 0.28 %IA/g tissue
- Heart %IA/g tissue (mean ± SD) ([1]; 2 h post-injection): 2.19 ± 0.37 %IA/g tissue
- Kidneys %IA/g tissue (mean ± SD) ([1]; 2 h post-injection): 2.08 ± 0.29 %IA/g tissue
- Liver %IA/g tissue (mean ± SD) ([1]; 2 h post-injection): 2.50 ± 0.29 %IA/g tissue
- Lung %IA/g tissue (mean ± SD) ([1]; 2 h post-injection): 1.63 ± 0.16 %IA/g tissue
- Muscles %IA/g tissue (mean ± SD) ([1]; 2 h post-injection): 1.40 ± 0.24 %IA/g tissue
- Pancreas %IA/g tissue (mean ± SD) ([1]; 2 h post-injection): 1.56 ± 0.18 %IA/g tissue
- Sm. Intestine %IA/g tissue (mean ± SD) ([1]; 2 h post-injection): 1.42 ± 0.10 %IA/g tissue
- Spleen %IA/g tissue (mean ± SD) ([1]; 2 h post-injection): 1.51 ± 0.12 %IA/g tissue
- Tumor %IA/g tissue (mean ± SD) ([1]; 1 h post-injection): 3.68 ± 0.47 %IA/g tissue
- Tumor %IA/g tissue (mean ± SD) ([1]; 2 h post-injection): 3.07 ± 0.36 %IA/g tissue
- bone uptake ([2]; mice with no tumor): 3.23 ± 0.24 %IA/g
- blood uptake ([2]; mice without implanted tumor): 2.81 ± 0.31 %IA/g
- brain uptake ([2]; mice without implanted tumor): 2.46 ± 0.41 %IA/g
- liver uptake ([2]; mice without implanted tumor): 4.11 ± 0.63 %IA/g
- lungs uptake ([2]; mice without implanted tumor): 2.52 ± 0.47 %IA/g
- muscle uptake ([2]; mice without implanted tumor): 1.10 ± 0.13 %IA/g
- IC50 (B16F1 cells [3]; read-out: IC50, first of two distinct binding sites): 1.8 nM
- IC50 (B16F1 cells [3]; read-out: IC50, second of two distinct binding sites): 1300 nM
- total binding to B16F1 cells (B16F1 melanoma cells; 22 °C): 44.45 ± 0.61%
- total binding to B16F1 cells (B16F1 melanoma cells; 37 °C, 1 h incubation): 60.03 ± 0.48%
- internalized fraction of cell-associated radioactivity (B16F1 cells [4]): Majority of the cell-associated radioactivity is internalized
- time at which internalized fraction reached plateau (B16F1 cells [4]): about 120 min
- cell surface bound fraction (B16F1 cells [4]; all time points (15-180 min)): < 1%
